Assay results reported in patent publication US8536187B2 (Gilead Sciences, Inc., priority 2008, dated 2013).

Legend:
[1] = CC50 assay (CellTiter-Glo) in Huh-7 HCV replicon cells; type: cell-based; details: human
Experimental: (§1) The anti-HCV activity of the pyrido[3,2-d]pyrimidine derivatives of this invention was tested in a human hepatoma Huh-7 cell line harboring a HCV replicon. The assay comprised the following steps: • Step 1: compound preparation and serial dilution: serial dilution is performed in 50% DMSO in a 384-well plate. A solution containing a compound at 100-fold concentration of the starting final serial dilution concentration was prepared in 50% DMSO and added to the pre-specified wells in column 1 of a polypropylene 384-well plate. The plate was then placed on a Precision 2000 Workstation to start the serial dilution. After the serial dilution, a volume of 2 μL of the solution was transferred from the 384-well plate to a 96-well cell culture plate containing 100 μL of cell media on a Biomek FX Workstation. The DMSO concentration in the final assay condition was 0.5% after cells are added to the plate and the total volume in each well is brought to 200 μL. • Step 2: to each well of the serial dilution plate prepared above, 100 μL of cell media containing 6000 suspended Huh-7 HCV replicon cells was added with a Multidrop workstation. The plates were incubated for 3 days at 37° C. with 5% CO2. • Step 3: detection: • a) for the EC50 assay, the media in a 96-well cell culture plate was aspirated with a Biotek EL405 plate-washer. A volume of 200 μL of a solution containing a 1:1 mixture of cell-lysis buffer (Promega, Luciferase Cell Culture Lysis 5× Reagent, cat. #E1531) and luciferase substrate solution (Promega, Luciferase Assay, cat.# E4550) was added to each well of the plate with Multidrop. The plate was incubated for 30 minutes at room temperature before the luminescence signal was measured with a TopCount plate-reader. • b) for the CC50 assay, a volume of 100 μL of pre-mixed CellTiter-Glo (Promega, cat.# G7572) solution is added directly to the cell culture in each well of the plate and the luminescence signal is measured with a TopCount plate-reader after 10 minutes of incubation at room temperature.

[2] = system: HCV replicon in human hepatoma Huh-7 cell line; experiment: Anti-HCV replicon assay, EC50 (luciferase luminescence); type: cell-based; details: Hepatitis C virus, Huh-7, 72 h
Experimental: as §1

Row | SMILES | CC50 at 3 days ([1]; Table 2, 3 days incubation) | EC50 [2] | CC50 at 3 days ([1]; Table 1, 3 days incubation)
1 | FC(F)(F)C1(Nc2nc(NCc3cccc(-n4cncn4)c3)nc3ccc(-c4ccc(NC5CC5)nc4)nc23)CC1 [Example 70, N^2-(3-(1H-1,2,4-triazol-1-yl)benzyl)-6-(6-(cyclopropylamino)pyridin-3-yl)-N^4-(1-(trifluoromethyl)cyclopropyl) pyrido[3,2-d]pyrimidine-2,4-diamine] | > 10000 nM | < 100 nM | 
2 | COc1ccc(-c2ccc3nc(NC(C)c4cc(F)cc(F)c4)nc(NCC(F)(F)F)c3n2)cc1S(C)(=O)=O (stereo not drawn) [Example 180, N^2-(1-(3,5-difluorophenyl)ethyl)-6-(4-methoxy-3-(methylsulfonyl)phenyl)-N^4-(2,2,2-trifluoroethyl)pyrido [3,2-d]pyrimidine-2,4-diamine] | 1000 to 10000 nM | 100 to 250 nM | 
3 | CC(C)(C)Oc1nc(NCc2ccc(-n3cncn3)cc2)nc2ccc(-c3cccc(S(C)(=O)=O)c3)nc12 [Example 197, N-(4-(1H-1,2,4-triazol-1-yl)benzyl)-4-tert-butoxy-6-(3-(methylsulfonyl)phenyl)pyrido [3,2-d]pyrimidin-2-amine] | > 10000 nM | < 100 nM | 
4 | COc1ccc(-c2ccc3nc(NCc4ccc(S(N)(=O)=O)cc4)nc(NC(C(F)(F)F)C(F)(F)F)c3n2)cc1S(C)(=O)=O [Example 151, 4-((4-(1,1,1,3,3,3-hexafluoropropan-2-ylamino)-6-(4-methoxy-3-(methylsulfonyl)phenyl)pyrido[3,2-d]pyrimidin-2-ylamino)methyl)benzene-sulfonamide] | 1000 to 10000 nM | < 100 nM | 
5 | COCC#Cc1ccc2nc(N[C@H](C)c3ccc(S(N)(=O)=O)cc3)nc(NCC(F)(F)F)c2n1 [Example 277, (R)-4-(1-(6-(3-methoxyprop-1-ynyl)-4-(2,2,2-trifluoroethyl-amino)pyrido[3,2-d]pyrimidin-2-ylamino)ethyl)benzene-sulfonamide] | > 10000 nM | < 100 nM | 
6 | CS(=O)(=O)c1cccc(-c2ccc3nc(NCc4ccc(-n5cncn5)cc4)nc(NCC(F)(F)F)c3n2)c1 [Example 163, N^2-(4-(1H-1,2,4-triazol-1-yl)benzyl)-6-(3-(methylsulfonyl)phenyl)-N^4-(2,2,2-trifluoroethyl) pyrido[3,2-d]pyrimidine-2,4-diamine] | > 10000 nM | < 100 nM | 
7 | CS(=O)(=O)c1cc(-c2ccc3nc(NCc4ccc(-n5cncn5)cc4)nc(OC4CCC4)c3n2)ccc1OC(F)F [Example 204, N-(4-(1H-1,2,4-triazol-1-yl)benzyl)-4-cyclobutoxy-6-(4-(difluoromethoxy)-3-(methylsulfonyl)phenyl)pyrido [3,2-d]pyrimidin-2-amine] | 1000 to 10000 nM | < 100 nM | 
8 | FC(F)(F)CNc1nc(NCc2ccc(-n3cncn3)cc2)nc2ccc(C#CC3CC3)nc12 [Example 287, N^2-(4-(1H-1,2,4-triazol-1-yl)benzyl)-6-(2-cyclopropyl-ethynyl)-N^4-(2,2,2-trifluoroethyl) pyrido[3,2-d]pyrimidine-2,4-diamine] | > 10000 nM | 100 to 250 nM | 
9 | COc1ccc(-c2ccc3nc(NCc4cccc(-n5cncn5)c4)nc(NC4(C(F)(F)F)CC4)c3n2)cc1S(C)(=O)=O [Example 39, N^2-(3-(1H-1,2,4-triazol-1-yl)benzyl)-6-(4-methoxy-3-(methylsulfonyl)phenyl)-N^4-(1-(trifluoromethyl)cyclopropyl) pyrido[3,2-d]pyrimidine-2,4-diamine] | > 10000 nM | < 100 nM | 
10 | NS(=O)(=O)c1cc(CNc2nc(NC3(C(F)(F)F)CC3)c3nc(-c4ccc(F)cc4)ccc3n2)ccc1C(F)(F)F [Example 118, 5-((6-(4-fluorophenyl)-4-(1-(trifluoromethyl)cyclopropyl-amino)pyrido[3,2-d]pyrimidin-2-ylamino)methyl)-2-(trifluoro-methyl)benzenesulfonamide] | > 10000 nM | 250 to 2000 nM | 
11 | FC(F)(F)CNc1nc(NCc2ccc(-n3cncn3)cc2)nc2ccc(-c3cnc(OC4CC4)nc3)nc12 [Example 253, N^2-(4-(1H-1,2,4-triazol-1-yl)benzyl)-6-(2-cyclopropoxy-pyrimidin-5-yl)-N^4-(2,2,2-trifluoroethyl)pyrido[3,2-d] pyrimidine-2,4-diamine] | > 10000 nM | < 100 nM | 
12 | CS(=O)(=O)c1cccc(-c2ccc3nc(NCc4cccc(-n5cncn5)c4)nc(NCC(F)(F)F)c3n2)c1 [Example 16, 6-(3-Methanesulfonyl-phenyl)-N2-(3-[1,2,4]-triazol-1-yl-benzyl)-N4-(2,2,2-trifluoro-ethyl)-pyrido[3,2-d]pyrimidine-2,4-diamine] |  | < 100 nM | > 25000 nM
13 | C#Cc1ccc2nc(N[C@H](C)c3ccc(S(N)(=O)=O)cc3)nc(OC3(C)CC3)c2n1 [Example 295, (R)-4-(1-(6-ethynyl-4-(1-methylcyclopropoxy)pyrido [3,2-d]pyrimidin-2-ylamino)ethyl)benzenesulfonamide] | 1000 to 10000 nM | < 100 nM | 
14 | C[C@@H](Nc1nc(NC2(C(F)(F)F)CC2)c2nc(-c3ccc(F)cc3)ccc2n1)c1ccc(S(N)(=O)=O)c(C(F)(F)F)c1 [Example 119, (R)-4-(1-(6-(4-fluorophenyl)-4-(1-(trifluoromethyl)cyclo-propylamino)pyrido[3,2-d]pyrimidin-2-ylamino)ethyl)-2-(trifluoromethyl)benzene-sulfonamide] | > 10000 nM | 250 to 2000 nM | 
15 | NS(=O)(=O)c1cc(F)cc(CNc2nc(NC3(C(F)(F)F)CC3)c3nc(-c4ccc(F)cc4)ccc3n2)c1 [Example 115, 3-fluoro-5-((6-(4-fluorophenyl)-4-(1-(trifluoromethyl)cyclopropyl-amino)pyrido[3,2-d]pyrimidin-2-ylamino)methyl)benzene-sulfonamide] | 1000 to 10000 nM | < 100 nM | 
16 | Fc1ccc(-c2ccc3nc(NCc4ccc(-n5cncn5)cc4)nc(NC4(C(F)(F)F)CC4)c3n2)cc1 [Example 81, N^2-(4-(1H-1,2,4-triazol-1-yl)benzyl)-6-(4-fluorophenyl)-N^4-(1-(trifluoromethyl)cyclopropyl)pyrido[3,2-d] pyrimidine-2,4-diamine] | 1000 to 10000 nM | 250 to 2000 nM | 
17 | CC(C)Oc1ccc(-c2ccc3nc(NCc4ccc(-n5cncn5)cc4)nc(NCC(F)(F)F)c3n2)cn1 [Example 240, N^2-(4-(1H-1,2,4-triazol-1-yl)benzyl)-6-(6-isopropoxy-pyridin-3-yl)-N^4-(2,2,2-trifluoroethyl)pyrido[3,2-d] pyrimidine-2,4-diamine] | > 10000 nM | < 100 nM | 
18 | COc1ccc(-c2ccc3nc(NC(C)C#CC4CC4)nc(NCC(F)(F)F)c3n2)cc1S(N)(=O)=O (stereo not drawn) [Example 239, 5-(2-(4-cyclopropylbut-3-yn-2-ylamino)-4-(2,2,2-trifluoroethylamino)pyrido [3,2-d]pyrimidin-6-yl)-2-methoxybenzenesulfonamide] | 1000 to 10000 nM | < 100 nM | 
19 | COc1ccc(-c2ccc3nc(NCc4ccc(S(N)(=O)=O)cc4)nc(NC4(C(F)(F)F)CC4)c3n2)cc1C(F)(F)F [Example 75, 4-((6-(4-methoxy-3-(trifluoromethyl)phenyl)-4-(1-(trifluoromethyl)cyclopropyl-amino)pyrido[3,2-d]pyrimidin-2-ylamino)methyl)benzene-sulfonamide] | > 10000 nM | 250 to 2000 nM | 
20 | NS(=O)(=O)c1cc(-c2ccc3nc(NCc4ccc(-n5cncn5)cc4)nc(NC4(C(F)(F)F)CC4)c3n2)ccc1Cl [Example 37, 5-(2-(4-(1H-1,2,4-triazol-1-yl)benzylamino)-4-(1-(trifluoromethyl)cyclopropyl-amino)pyrido[3,2-d]pyrimidin-6-yl)-2-chlorobenzenesulfonamide] | 1000 to 10000 nM | < 100 nM | 
21 | C[C@@H](Nc1nc(NCC(F)(F)F)c2nc(-c3cncc(S(C)(=O)=O)c3)ccc2n1)c1ccc(S(N)(=O)=O)cc1 [Example 156, 4-((R)-1-(6-(5-(methylsulfonyl)pyridin-3-yl)-4-(2,2,2-trifluoroethylamino)pyrido [3,2-d]pyrimidin-2-ylamino)ethyl)benzenesulfonamide] | > 10000 nM | 250 to 2000 nM | 
22 | COc1ccc(-c2ccc3nc(NCc4cccc(-n5cccn5)c4)nc(NCC(F)(F)F)c3n2)cc1S(C)(=O)=O [Example 140, N^2-(3-(1H-pyrazol-1-yl)benzyl)-6-(4-methoxy-3-(methylsulfonyl)phenyl)-N^4-(2,2,2-trifluoroethyl)pyrido [3,2-d]pyrimidine-2,4-diamine] | 1000 to 10000 nM | < 100 nM | 
23 | COc1ccc(-c2ccc3nc(NCc4ccc(S(N)(=O)=O)cc4)nc(NCC(F)(F)F)c3n2)cc1C(N)=O [Example 226, 4-((6-(3-(aminocarbonyl)l-4-methoxyphenyl)-4-(2,2,2-trifluoroethylamino)pyrido [3,2-d]pyrimidin-2-ylamino)methyl)benzene-sulfonamide] |  | < 100 nM | 
